{"source": "patent US10426728B2", "about": "“Synergistic liposomal formulation for the treatment of cancer” (priority 2013, dated 2019)", "key": {"B16F10 cells [1]": {"system": "B16F10 cells", "assay": "JC-1 mitochondrial membrane potential flow cytometry", "type": "cell-based, murine", "conditions": "7 μg/ml of free CPT, 2 h", "description": "Supernatant was carefully removed. 0.5 ml of freshly prepared 5,5′,6,6′-tetrachloro-[…] Iodide (JC-1) working solution containing 1:100 JC-1 stain was added to each pellet. The pellets were resuspended. Cells were incubated in JC-1 working solution for 10-15 min at 37° C. in a CO2 incubator. Cells were washed twice following incubation. Cells were then analyzed by flow cytometry. (BD™ MitoScreen Flow Cytometry Mitochondrial Membrane Potential Detection Kit) (33)."}, "[2]": {"system": "human PBMC of healthy donors", "type": "cell-based", "conditions": "7 μg/ml free CPT, 2 h", "protocol": "For isolation of human peripheral blood mononuclear cells from healthy donors (PBMC) heparinized human peripheral blood was obtained from healthy donors and the mononuclear cells (PBMC) were isolated by the density sedimentation on Histopaque-1077 (400×g, 30 min at RT) and washed and resuspended in RPMI 1640 supplemented with 10% FCS, 2 mM Lglutamine, penicillin (100 U/ml), and streptomycin (100 mg/ml) (30). […] Inhibition of 3-(4, 5-dimethylthiozol-2-yl)-2, 5-diphenyltetrazolium bromide (MTT) reduction to insoluble formazan by mitochondrial dehydrogenase was used as a viability parameter for the cells and compared with untreated control. After treatment with drug for 2 or 4 h the cells were washed with 20 mM PBS and incubated with 2 mg/ml MTT solution for 4 h at 37° C. The reduced formazan was solubilised in DMSO and plates were analyzed by determining the A550 on Thermo [sequence]"}, "B16F10 cells [3]": {"system": "B16F10 cells", "type": "cell-based, murine", "conditions": "2 h", "protocol": "Murine melanoma cell line B16F10, colorectal adenocarcinoma SW480 cell line, human colon carcinoma HCT116 cell line, rat brain astrocytes and rat C6 glioma cell lines were maintained in Dulbecco Modified Eagle Medium (DMEM) supplemented with 10% fetal bovine serum, sodium pyruvate, 2 mM L-glutamine, penicillin, and streptomycin. […] The cells were incubated at 37° C. in a humidified atmosphere of 5% CO2 in air (10).\nInhibition of 3-(4, 5-dimethylthiozol-2-yl)-2, 5-diphenyltetrazolium bromide (MTT) reduction to insoluble formazan by mitochondrial dehydrogenase was used as a viability parameter for the cells and compared with untreated control. After treatment with drug for 2 or 4 h the cells were washed with 20 mM PBS and incubated with 2 mg/ml MTT solution for 4 h at 37° C."}, "U937 cells": {"system": "U937 cells", "type": "cell-based, human", "conditions": "7 μg/ml free CPT, 2 h", "protocol": "(§1) Murine melanoma cell line B16F10, colorectal adenocarcinoma SW480 cell line, human colon carcinoma HCT116 cell line, rat brain astrocytes and rat C6 glioma cell lines were maintained in Dulbecco Modified Eagle Medium (DMEM) supplemented with 10% fetal bovine serum, sodium pyruvate, 2 mM L-glutamine, penicillin, and streptomycin. Murine macrophage cell line RAW 264.7, MOLT-4 cell line (derived from human acute lymphoblastic leukemia), human leukemia cell lines K-562 and human lymphoma cell line U-937 were maintained in RPMI 1640 medium supplemented with 10% fetal bovine serum, sodium pyruvate, 2 mM L-glutamine, penicillin, and streptomycin. The cells were incubated at 37° C. in a humidified atmosphere of 5% CO2 in air (10). The Ehrlichs ascites carcinoma cells (EAC) were maintained in vivo in Swiss albino mice, by intraperitoneal (i.p.) transplantation of 2×10^6 cells/mouse every 15 days. Cells were obtained from the peritoneal fluid after 15 days, washed in 0.2M PBS and resuspended in RPMI medium supplemented with 10% FBS.\n(§2) Inhibition of 3-(4, 5-dimethylthiozol-2-yl)-2, 5-diphenyltetrazolium bromide (MTT) reduction to insoluble formazan by mitochondrial dehydrogenase was used as a viability parameter for the cells and compared with untreated control. […] The reduced formazan was solubilised in DMSO and plates were analyzed by determining the A550 on Thermo [sequence]"}, "SW480 cells": {"system": "SW480 cells", "assay": "MTT viability assay", "type": "cell-based, human", "conditions": "7 μg/ml free CPT, 2 h", "protocol": "as §1, §2"}, "rat C6 glioma cells": {"system": "rat C6 glioma cells", "conditions": "7 μg/ml free CPT, 2 h", "protocol": "as §1, §2"}, "[4]": {"system": "Ehrlichs ascites carcinoma cells (EAC)", "type": "cell-based, mouse", "conditions": "7 μg/ml free CPT, 2 h", "protocol": "as §1, §2"}, "[5]": {"system": "B16F10, K562, U937, rat C6 glioma, EAC, MOLT4 and SW480 cell lines", "assay": "In vitro EC50 of free anticancer drugs by MTT", "type": "cell-based", "conditions": "free drug, 2 h treatment", "description": "The cells were treated with PC:SA liposome (20-350 μg/ml with respect to PC) or free DOX (500-1000 μg/ml) and free CAMPTOSAR (irinotecan hydrochloride, which is a semisynthetic derivative of camptothecin) (500-10,000 μg/ml). After 2 h of treatment effects on cell viability were determined by MTT assay. EC50 values were determined by nonlinear regression analysis of concentration-response data."}}, "note": "Where a name gives a salt, the structure may show the parent alone.", "data": [{"smiles": "CC[C@@]1(O)C(=O)OCc2c1cc1n(c2=O)Cc2cc3ccccc3nc2-1", "note": "[CPT, camptothecin]", "values": [{"measurement": "green fluorescing monomers (JC-1)", "setting": "B16F10 cells [1]", "result": 7, "unit": "%"}, {"measurement": "killing effect", "setting": "[2]", "result": "no killing effect"}, {"measurement": "viability", "setting": "B16F10 cells [3]; 7 μg/ml free CPT", "result": 38, "unit": "%"}, {"measurement": "cells survived", "setting": "B16F10 cells [3]; free CPT 3.9 μg/ml (REV equivalent) and 6.1 μg/ml (DRV equivalent)", "result": "about 38%"}, {"measurement": "killing effect", "setting": "U937 cells", "result": "no killing effect"}, {"measurement": "killing effect", "setting": "SW480 cells", "result": "no killing effect"}, {"measurement": "viability", "setting": "rat C6 glioma cells", "result": 71, "unit": "%"}, {"measurement": "viability", "setting": "[4]", "result": 56, "unit": "%"}]}, {"smiles": "CCc1c2c(nc3ccc(OC(=O)N4CCC(N5CCCCC5)CC4)cc13)-c1cc3c(c(=O)n1C2)COC(=O)[C@]3(O)CC", "note": "[irinotecan hydrochloride]", "values": [{"measurement": "EC50", "setting": "[5]", "result": "800 to 5000", "unit": "µg/mL"}]}]}
